Assay results taken from article PMC7093416, “Selective USP7 inhibition elicits cancer cell killing through a p53-dependent mechanism” (Scientific Reports, 2020).
Where two headings read alike, the source gives them in different places.

Experiments:
USP7 catalytic domain = biological target: T1, USP7 catalytic domain (Homo sapiens, UniProt Q93009); assay: Intact MS / CE-MS labeling of purified USP7 catalytic domain; assay type: binding; conditions: 2.5-fold molar excess compound
T1 construct: catalytic domain (208–560) used were cloned as described; inferred from Ni-NTA purification; made in house; host or cells: E. coli BL21 (DE3)
Method: Purified USP7 catalytic domain was diluted to 20 μM in 10 μL labeling buffer (20 mM HEPES pH 7.5, 150 mM NaCl, 1 mM TCEP) and incubated for the indicated times with 50 μM (2.5×) compound. After incubation, samples were flash frozen in liquid nitrogen and stored at −80 °C until analysis.
Intact mass analysis was performed by injecting 5 µg USP7 catalytic domain onto a self-packed reversed phase column (1/32” O.D. × 500 um I.D., 5 cm of POROS 10R2 resin). After desalting, protein was eluted with an HPLC gradient (0–100% B in 4 minutes, A = 0.2 M acetic acid in water, B = 0.2 M acetic acid in acetonitrile, flow rate ~30 µL/min) into an LTQ ion trap mass spectrometer (ThermoFisher Scientific, San Jose, CA). Mass spectra were processed using MagTran1.03b2[52].
Peptides were desalted using SP3[53], dried by vacuum centrifugation, and reconstituted in 1% formic acid/50% acetonitrile with 100 mM ammonium acetate. Peptides were then analyzed by CE-MS using a ZipChip CE system and autosampler (908 Devices, Boston, MA) interfaced to a QExactive HF mass spectrometer (ThermoFisher Scientific, San Jose, CA). Peptide solution was loaded for 30 seconds, and the mass spectrometer was operated in data dependent mode and subjected the 5 most abundant ions in each MS scan (60k resolution, 3E6 target, lock mass enabled) to MS/MS (15k resolution, 1E5 target, 100 ms max inject time). […]

[1] = system: panel of 41 recombinant DUBs; assay: In vitro DUB profiling (Ubiquigent, Ub-Rho), other DUBs of the panel; assay type: biochemical; conditions: 1 µM, 15-minute pre-treatment
Method: Compounds were screened using the Ubiquigent Drug Profiler SPT system (www.ubiquigent.com/drug-discovery-services/dubprofiler/). Each of 41 purified DUBs was incubated with compound for 15 minutes, then ubiquitin rhodamine 110 (Ub-Rho) was added and percent inhibition determined based on fluorescence relative to a DMSO control.

USP7 = USP7 (Homo sapiens, UniProt Q93009); assay: Competitive ABPP with HA-Ub-VS in MCF7 crude cell extracts; assay type: binding; set-up: endogenous in cells; host or cells: MCF7; conditions: read-out: IC50 of inhibition of HA-Ub-VS labeling
Method: HA-Ub-VS experiments were performed as previously described in Lamberto et al[29]. Briefly, target engagement lysis buffer (50 mM Tris pH 8.0, 150 mM NaCl, 5 mM MgCl2, 0.5 mM EDTA, 0.5% NP-40, 10% glycerol, 1 mM TCEP, protease and phosphatase inhibitors) was added to cell pellets on ice. Lysate was cleared by centrifugation and diluted to 1.67 mg/mL. Where indicated, 30 μL lysate was then incubated with inhibitors or DMSO for the indicated timepoints. 1 μM HA-Ub-VS was then added to the lysate and incubated at RT for the indicated time points. Labeling reactions were quenched with 4x LDS sample buffer (Thermo Fisher B0007) supplemented with 10% BME, vortexed vigorously, and heated to 95 C for 5 minutes. Samples were resolved by SDS-PAGE and analyzed by Western blot with the indicated antibodies.

Sequence of USP7 (Q93009 whole entry): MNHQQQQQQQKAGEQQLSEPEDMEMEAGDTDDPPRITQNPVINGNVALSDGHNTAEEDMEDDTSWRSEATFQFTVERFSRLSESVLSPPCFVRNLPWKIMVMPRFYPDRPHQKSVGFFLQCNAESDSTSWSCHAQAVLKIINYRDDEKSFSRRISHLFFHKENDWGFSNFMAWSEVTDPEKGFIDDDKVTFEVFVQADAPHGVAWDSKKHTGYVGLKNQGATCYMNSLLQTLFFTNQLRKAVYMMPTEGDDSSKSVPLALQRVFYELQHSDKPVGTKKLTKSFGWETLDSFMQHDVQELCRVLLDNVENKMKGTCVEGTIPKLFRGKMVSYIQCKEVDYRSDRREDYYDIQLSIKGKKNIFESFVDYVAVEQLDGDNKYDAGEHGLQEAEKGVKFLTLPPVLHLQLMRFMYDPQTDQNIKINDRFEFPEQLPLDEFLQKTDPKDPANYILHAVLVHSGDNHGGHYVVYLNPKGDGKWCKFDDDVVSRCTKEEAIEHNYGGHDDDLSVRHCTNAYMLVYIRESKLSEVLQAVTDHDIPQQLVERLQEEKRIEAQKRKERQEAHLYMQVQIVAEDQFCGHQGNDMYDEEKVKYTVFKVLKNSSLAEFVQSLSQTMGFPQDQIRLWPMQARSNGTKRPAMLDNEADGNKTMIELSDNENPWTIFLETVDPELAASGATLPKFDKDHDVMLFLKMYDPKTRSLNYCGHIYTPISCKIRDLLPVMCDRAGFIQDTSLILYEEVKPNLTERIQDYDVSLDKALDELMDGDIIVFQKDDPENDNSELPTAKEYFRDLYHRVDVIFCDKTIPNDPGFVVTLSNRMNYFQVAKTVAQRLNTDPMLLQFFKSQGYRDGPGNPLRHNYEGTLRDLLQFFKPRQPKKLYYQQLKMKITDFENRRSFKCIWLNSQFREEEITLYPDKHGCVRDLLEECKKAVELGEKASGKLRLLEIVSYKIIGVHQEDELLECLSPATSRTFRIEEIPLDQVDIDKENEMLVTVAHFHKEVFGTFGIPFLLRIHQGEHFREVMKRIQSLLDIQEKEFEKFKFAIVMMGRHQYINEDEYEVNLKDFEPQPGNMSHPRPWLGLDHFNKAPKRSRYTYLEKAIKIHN
T1 sequence (Q93009 208-560): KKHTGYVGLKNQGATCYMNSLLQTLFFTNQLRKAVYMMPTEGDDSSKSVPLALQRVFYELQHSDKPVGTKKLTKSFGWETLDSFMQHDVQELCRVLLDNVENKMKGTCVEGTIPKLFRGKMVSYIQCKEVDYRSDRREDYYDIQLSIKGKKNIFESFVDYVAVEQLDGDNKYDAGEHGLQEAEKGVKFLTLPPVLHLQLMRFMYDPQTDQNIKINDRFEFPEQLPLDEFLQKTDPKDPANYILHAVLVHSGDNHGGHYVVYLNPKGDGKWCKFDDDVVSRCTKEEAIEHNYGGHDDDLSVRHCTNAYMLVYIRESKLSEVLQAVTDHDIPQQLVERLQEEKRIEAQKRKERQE

- labeling of USP7 catalytic domain by MS (USP7 catalytic domain): Quantitative labeling
- IC50 (USP7; 30 min preincubation): 85 nM
- IC50 (USP7; 4 hr preincubation): 8 nM
Compound: CN1CCN(CCC(=O)Nc2ccc3c(=O)n(CC4(O)CCN(C(=O)[C@@H](CCCNC(=O)c5ccc6c(Cl)c7c(nc6c5)CCCC7)Cc5ccccc5)CC4)cnc3c2)CC1 [XL177A]
- activity against any other DUBs [1]: did not exhibit significant activity
